Source: patent publication US5925667A, “Pyrrolidine derivative, anti-ulcer drug, and antibacterial drug” (Shiseido Co., Ltd., priority 1997, dated 1999)

Tests used:
[1] = MTT: Cell Damaging and Protecting Effect Test; assay type: cell-based, male Japanese White rabbit; settings: rabbit, gastric mucosa cells, final concentration 10^-4 M, smaller value is better, read-out: cell damaging rate (MTT)
From the text: MTT: Cell Damaging and Protecting Effect Test
It is confirmed that there is no toxicity in cell level. Those having a toxicity in cell level are inappropriate as an anti-ulcer drug.
A male Japanese White rabbit (2.5 to 3 kg) was anesthetized to death by Nembutal™ and, immediately thereafter, its stomach was removed. The greater curvature of the stomach was incised so as to remove the stomach contents therefrom. After the mucosal surface was washed with HBSS (Hanks' Balanced Salt Solution), the stomach in ice-cooled HBSS was transferred to a laboratory. Then, after the pyloric antrum was removed, the gastric corpus mucosa was separated by a spatula and then minced into 2 to 3 mm^3 pieces in BME (Basal Medium Eagle). Thereafer, these pieces were shaken at 120 to 130 cycles/minute for 15 minutes at 37° C. in BME 60 ml containing 280 U/ml of dispase and 30 to 50 U/ml of collagenase. Here, the concentration of collagenase was appropriately changed for each lot in view of the state of cells. The pieces were washed twice with EBSS (Earle's Balanced Salt Solution) containing 1 mM of EDTA and then shaken in MEM (Minimum Essential Medium) containing 1 mM of EDTA at 37° C. for 5 minutes. Subsequently, they were shaken in the dispase and collagenase having the same concentrations as those mentioned above for 15 minutes so as to remove the supernatant and then further shaken at 37° C. for 50 to 60 minutes at 120 to 130 cycles/minute. Then, after being washed twice with HBSS, Ham F12 containing 2% of Ultrocer G™ was used to attain the concentration of 1×10^6 cells/ml. Thus formed suspension was dispensed in each well of a 96-well plate by 200 μl. The plate was incubated in the atmosphere composed of 5% CO2 and 95% air at 37° C. for three days so as to attain a confluent state and then subjected to MTT assay.
The sample compound was dissolved in DMSO so as to attain a concentration of 10^-2 M and then diluted with HBSS containing 2% of Ultrocer G™ so as to attain a final concentration of 10^-4 M. To each group, which 8 wells were used for, 10 μl of MTT reagent was added immediately after 100 μl of the medium in each well was exchanged for same volume of the resulting solution of the sample compound. After being incubated in an atmosphere composed of 5% CO2 and 95% air at 37° C. for 4 hours, thus formed solution was centrifuged and then its supernatant was discarded. Subsequently, 100 μl of 100% ethanol was added to the residue so as to dissolve MTT formazan. Then, the absorbance (OD: 570 to 630) was measured by a microplate reader. This method utilizes a phenomenon in which MTT is changed to MTT formazan only by mitochondria of living cells so as to change color.
The cell damaging or cell protecting effect of the sample compound at the final concentration of 10^-4 M was expressed as cell damaging rate (%) as follows:
cell damaging rate (%)=(1-(absorbance in sample group/absorbance in control group))×100
Accordingly, the smaller value is better in the cell damaging rate.

Slc:ICR mice = system: Slc:ICR mice; set-up: species or system male Slc:ICR mice; settings: mouse, in vivo
Method: AT: Single Dose Toxicity Pretest
Male Slc:ICR mice (5-week-old) were used. Each group has 3 to 5 mice and each mouse was fasted, but allowed free access to water, for 4 to 5 hours from 9 a.m. in the test day. Then, 2,000 mg/10 ml/kg of the sample compound dissolved or suspended in an aqueous solution of 0.5% sodium carboxymethyl cellulose was orally administered thereto. To a control, only the vehicle was administered. […] The body weight was measured before and after the fasting as well as at the same time everyday. The dead animals were immediately subjected to autopsy and their organs were observed by naked eyes. Also, the living animals were sacrificed with ether or carbon dioxide one week after the administration and then their organs were observed by naked eyes.
The toxicity at the single dose of 2,000 mg/kg of the sample compound was expressed as being classified into 5 levels.
5: Mortality rate is 0%; no toxicity is found at all both in behavior and organs.
4: Mortality rate is 0%; while no toxicity is found in organs, slight toxicity is observed in behavior or body weight increase.
3: While there is a dead animal (though not all the animals are dead), no toxicity is found in organs.
2: Regardless of whether there is a dead animal or not, toxicity is found in organs.
1: All the animals are dead.

stress ulcer = assay: WIS: Restraint and Water Immersion Stress-Induced Ulcer Inhibition Test; assay type: in vivo, male Crj:SD or Slc:SD rats; settings: rat, 100 mg/kg oral, 7 h water immersion stress; read-out: ulcer formation inhibitory rate (WIS)
Method: WIS: Restraint and Water Immersion Stress-Induced Ulcer Inhibition Test
The degree of inhibition of the stress ulcer formation is tested.
Male Crj:SD or Slc:SD rats (6 to 7-week-old) were fasted overnight, but allowed free access to water. Each group has 5 to 8 of these rats. The sample compound was dissolved or suspended in an aqueous solution of 0.3% sodium carboxymethylcellulose or 0.05% Tween 80 and then was orally administered (100 mg/10 ml/kg. To a control group, the vehicle was administered. 10 minutes later, the rats were placed in a stress cage and immersed to the level of xipfoid process in a water bath (21° C.) for 7 hours. At the end of the stress, the rats were sacrificed by inhalation of ether or carbon dioxide. Then, the stomach of each was removed, inflated by injecting 10 ml of 5% formalin neutral buffer solution, and immersed in 1% formalin neutral buffer solution for 30 minutes or more to be fixed. The stomach was incised along the greater curvature and then the length of each erosion in the glandular portion was determined under dissecting microscope. The sum of the length of erosions per stomach was defined as ulcer index (UI).
The effect obtained when 100 mg/kg of the sample compound had been administered was expressed as ulcer formation inhibitory rate (%) as follows:
ulcer formation inhibitory rate (%)=(1-(UI in sample group/UI in control group))×100

| SMILES | cytotoxicity at 4 h, 100 µM [1] [%] | toxicity at single dose (AT), 5 levels (Slc:ICR mice) | inhibition in vivo at 100 mg/kg (stress ulcer) [%] |
| --- | --- | --- | --- |
| CCN1CCCC1CNC(=O)c1ccc(OCC=C(C)C)c(OCC=C(C)C)c1 (stereo not drawn) [Example 7, 1-ethyl-2-(3,4-diprenyloxybenzoylaminomethyl)pyrrolidine] | 28 | 3 | 92 |
| CCN1CCCC1CNC(=O)c1cc(OCC=C(C)C)ccc1OCC=C(C)C (stereo not drawn) [Example 6, 1-ethyl-2-(2,5-diprenyloxybenzoylaminomethyl)pyrrolidine] | 34 | 3 | 84 |
| CCN1CCCC1CNC(=O)c1cc(OC/C=C(\C)CCC=C(C)C)ccc1OC/C=C(\C)CCC=C(C)C (stereo not drawn) [Example 10, 1-ethyl-2-(2,5-digeranyloxybenzoylaminomethyl)pyrrolidine] | 15 | 3 | 74 |
